From patent publication US12624068B2, “Exon skipping by peptide nucleic acid derivatives” (OliPass Corporation, priority 2016, dated 2026)
[C(1O2)] = modified PNA monomer acting as cytosine, C(pOq) type, 1O2; [A(5)] = modified PNA monomer acting as adenine, A(p) type, p=5; [G(6)] = modified PNA monomer acting as guanine, G(p) type, p=6; {Fethoc} = N-terminal Fethoc cap; {NH2} = C-terminal amide

Legend:
full-length dystrophin = assay: IHC of skeletal muscles against full-length dystrophin in mdx mice; format: in vivo
Description: [IHC Evaluation of Skeletal Muscles against Full-length Dystrophin] In Weeks 7, 13 and 21, two animals per group were randomly selected and sacrificed to extract muscle tissues. In Week 30, 3 animals were sacrificed per group.
The muscle tissues sampled in Week 7 were subjected to IHC against the full-length dystrophin by cryosection. The muscle tissues sampled in Weeks 13, 21 and 30 were immunostained by paraffin block. IHC by paraffin block yielded images of better quality than IHC by cryosection.
Muscle samples were subjected to immunostaining in series with a primary antibody targeting the C-terminal of mouse dystrophin (Cat. Number sc-816, Santa Cruz) at 1:100 dilution, with a secondary anti-IgG antibody (Cat Number BA-1100, Vector) at 1:200 dilution, and then with Dylight 594-streptavidin (Cat Number SA-5594, Vector, CA, USA) at 1:200 dilution for red fluorescence tagging. The IHC images were captured on a Zeiss slide scanner (in Weeks 13, 21 and 30) or an Olympus fluorescence microscope (in Week 7). […]
The dystrophin IHC images were subjected to quantification for the full-length dystrophin expression by digitally scoring the intensity of red fluorescence in each individual IHC image using the “ImageJ” program (NIH). Individual fluorescence scores were combined by group and muscle type for statistical evaluation against the wild type negative control group.

serum myoglobin = assay: Serum myoglobin level in mdx mice; format: in vivo; conditions: DMD-ASO 1 50 pmole/Kg, DMD-ASO 2 or DMD-ASO 6 10 pmole/Kg, 2× per week, Week 66
Method: [Terminal Sacrifice] In Week 48, the animals were subjected to terminal sacrifice for blood sampling. The blood samples were analyzed for the serum level of CK (Creatine Kinase Activity Assay Kit, Cat. Number ab155901, Abcam) and myoglobin (Myoglobin ELISA Kit, Cat. Number ab210965, Abcam) to assess the degree of muscle degradation according to the manufacturer's instructions. Muscle tissues were analyzed by western blot for the full-length dystrophin.
[Terminal Sacrifice] All the survived animals were sacrificed for blood sampling in Week 66 post the grouping. The blood samples were subjected to ELISA assays for serum creatine kinase (CK) and serum myoglobin as described in “DMD Example 6”.

mdx mice [1] = assay: Rotarod test in mdx mice; format: in vivo, mouse; conditions: 100 pmole/Kg subcutaneous 3× per week
Method: Given with the exon skipping potential, “DMD-ASO 1” was evaluated in mdx mice for its ability to improve muscle function by rotarod test as described below.
[Grouping] 6 weeks old male mdx mice were trained for rotarod test over a period of 2 weeks, and then randomly assigned into 3 groups of 0 (negative control), 100 and 1,000 pmole/Kg “DMD-ASO 1” based on individual scores by rotarod test in Day 0, i.e., the day of grouping. (N=10 per group)
[ASO Treatment] The injection solutions were prepared by serially diluting the ASO to 20 nM and 200 nM in PBS. Animals were subcutaneously administered with vehicle (PBS, negative control), 20 nM “DMD-ASO 1” (100 pmole/Kg), or 200 nM “DMD-ASO 1” (1,000 pmole/Kg) at 5 mL/Kg, 3× per week over a period of Day 0 to Day 21.
[Rotarod Test and Statistical Analysis] Mice were subjected to rotarod test on a rotarod apparatus (Model #47650, Ugo Basile) with an acceleration schedule of 4 rpm to 45 rpm over 60 seconds. The latency to fall (i.e., the duration that animal remained on the rotarod) was scored for each individual animal. Statistical significance was evaluated by student's t-test against the negative control group.

[2] = tested on: mouse dystrophin pre-mRNA; assay: Dystrophin nested PCR (Method B) in muscles of mdx mice; format: in vivo; conditions: skeletal muscles sampled in Week 7
Method: The RNA samples obtained in “DMD Example 1” were subjected to a one-step cDNA synthesis using a set of exon-specific primers of [DMD-exon 20_forward: (5'→3') […] NO: 107); and DMD-exon 26_reverse: (5'→3') […] NO: 108)]. The cDNA samples were then analyzed by nested PCR against another set of exon-specific primers of [DMD-exon 20n_forward: (5'→3') […] NO: 109); and DMD-exon 26n_reverse: (5'→3') […] NO: 110)]. [Nested PCR for Exon Skipping (Method B)] Muscle samples were homogenized by grinding in a tube kept on ice, and subjected to total RNA extraction with 1 mL trizol reagent (Invitrogen) per ca 100 mg muscle tissue. The total RNAs were evaluated for exon skipping by nested PCR as described in “DMD Example 2”.

mdx mice [3] = assay: Histopathology by H&E staining of skeletal muscle in mdx mice; format: in vivo, mouse
Description: [Histopathology by H&E Staining] Muscular inflammation and degeneration are the hallmark of DMD symptoms. Skeletal muscle samples were subjected to histopathology evaluation by H&E staining. FIG. 43 provides a representative set of H&E staining images for the triceps by group and sampling time point.

[4] = tested on: rats with diabetes-induced peripheral neuropathic pain (DPNP); assay: Reversal of allodynia (von Frey) in rats with diabetes-induced peripheral neuropathic pain; format: in vivo, rat; conditions: 100 pmole/Kg subcutaneous in Days 11, 13, 15, 17 and 19
Method: “SCN-ASO 7”, “SCN-ASO 8”, “SCN-ASO 21”, “SCN-ASO 35”, “SCN-ASO 36” and “SCN-ASO 37” were evaluated for their ability to reverse the allodynia in rats with diabetes-induced peripheral neuropathic pain (DPNP). In this example, the six SCN9A ASOs targeting a total of five splice sites were evaluated for their ability to reverse the allodynia induced by diabetic neuropathy in rats.
[Induction of DPNP and Grouping] Diabetes was induced in rats by an intraperitoneal injection of streptozotocin at 60 mg/Kg in Day 0. In Day 10, rats with DPNP were randomly assigned to […] of negative control (vehicle only), “SCN-ASO 7” 100 pmole/Kg, “SCN-ASO 8” 100 pmole/Kg, “SCN-ASO 21” 100 pmole/Kg, “SCN-ASO 35” 100 pmole/Kg, “SCN-ASO 36” 100 pmole/Kg, and “SCN-ASO 37” 100 pmole/Kg. The animals were grouped based on the von Frey scores of individual animals in Day 10. (N=8-9 per group) Allodynia was scored using a set of microfilaments (Touch Test®) according to the “Up & Down” method. [J Neurosci. Methods vol 53(1), 55-63 (1994)]
[ASO Treatment and von Frey Scoring] ASO solutions for injection were prepared by serially diluting aqueous mother stock solutions of the SCN9A ASOs to 100 nM in PBS (phosphate buffered saline). Animals were subcutaneously administered with ASO at 1 mL/Kg in Days 11, 13, 15, 17 and 19. Von Frey scoring was carried out 2 hours post dose in Days 11, 13, 15, 17 and 19. Von Frey scoring was additionally performed in Days 21 and 23 in order to assess the duration of the therapeutic activity after the final dosing. Daily von Frey scores were evaluated for statistical significance by student's t-test against the negative control group (vehicle only, i.e., PBS).

Row | Substance | in vivo potency relative to the PMO ASO eteplirsen (30 mg/Kg per week) (full-length dystrophin; 200 pmole/Kg corresponds to ca 1 μg/Kg, different species and exon) | full-length dystrophin expression relative to the WT negative control group (IHC) (full-length dystrophin; mdx mice, 200 pmole/Kg 2× per week, Week 30) | serum myoglobin level smaller than the mdx negative control group by (serum myoglobin) | muscle function by rotarod test (mdx mice [1]) | in-frame PCR products of Δexons 21-23 and Δexons 21-24 (nested PCR Method B) [2] | muscular degeneration and inflammation (H&E) (mdx mice [3]; chronic 200 pmole/Kg) | severity of the histopathology findings (H&E) (mdx mice [3]; chronic 10 and 50 pmole/Kg) | maximum therapeutic efficacy based on the von Frey scores in Day 19 [4]
1 | Fethoc-A(5)GA-G(6)CC(1O2)-TCA-A(5)AA(5)-T-NH2 (antisense AGAGCCTCAAAAT; Fethoc N-cap, C-terminal amide, chemistry not fully specified) [DMD-ASO 1] | ~30,000 times | > 80% | 43% | showed a strong propensity of improvement, but was not significant | detected in muscle samples of the ASO treatment groups | reversed | weaker than the severity in the mdx negative control, but stronger than that in the 200 pmole/Kg group | –
2 | Fethoc-AC(1O2)T-TA(5)C-G(6)CA-A(5)AA(5)-AC(1O2)A-A(5)-NH2 (ACTTACGCAAAAACAA; all peptide nucleic acid (PNA), [C(1O2)] at 2, 14, [A(5)] at 5, 10, 12, 16, [G(6)] at 7, 5' {Fethoc}, 3' {NH2}; peptide nucleic acid written N to C) [SCN-ASO 7] | – | – | – | – | – | – | – | ~76%
